Columns and labels:
HPAEpiC cells = assay: LPS+hypoxia model, LDH release, alveolar epithelial cells; format: cell-based, human
Protocol: HPAEpiC cells were cultured with alveolar epithelial cell medium. When the cells grew to about 80% confluence, the cells were digested with 0.25% trypsin, and then pipetted evenly with alveolar epithelial cell medium. The cell concentration was adjusted to 2×10^5 cells/mL, and the cells were seeded in a 24-well plate at 400 uL/well. The experiment was conducted when the cells grew to about 70% confluence.
The hypoxia workstation was set to have an oxygen concentration of 1% (1% O2, 5% CO2, 94% a temperature to 37° C., and a humidity of 85%. After the conditions in the hypoxia workstation were stable, 1 mg/mL LPS was directly added to the cells to make the final concentration of LPS […], and then the cells were cultured in the hypoxia workstation for 24 hours.
Before being subjected to the model, the cells in the drug group were pre-incubated with vehicle (20% hydroxypropyl cyclodextrin solution) or drug (the final concentration of YC-6 was 1 μM, 5 μM, 10 μM) for 1 hour, and then added with LPS, and placed in the hypoxia workstation for constructing the model, until the end of the experiment. The model control group was not treated with any drug, and the normal group was placed in a cell incubator for routine culturing. 10 μM dexamethasone was used as the drug control. Three replicates were performed for each treatment group.

[1] = test system: Human umbilical vein endothelial cells (HUVEC); assay: OGD-R injury model, LDH detection, HUVEC; format: cell-based; settings: OGD 4 hours, restoration 24 hours, 1, 3, 10 μM, prophylactic (1 hour before OGD) or therapeutic (at restoration)
Protocol: HUVEC cells were cultured in modified DMEM medium containing 10% fetal bovine serum. When the cells reached about 80% confluence, the cells were digested with 0.25% trypsin, and then pipetted evenly with modified DMEM containing 10% fetal bovine serum. The cell concentration was adjusted to 1×10^5 cells/mL, and the cells were seeded at 400 uL/well in a 24-well plate, and the experiment was carried out when the cells grew to about 70% confluence. RAOEC cells were cultured in high-glucose DMEM medium containing 10% fetal bovine serum, and the seeding conditions were the same as those for HUVECs.
The hypoxia workstation was set to have an oxygen concentration of 1% (1% O2, 5% CO2, 94% N2), a temperature of 37° C., and a humidity of 85%. A sugar-free DMEM medium was placed in the hypoxia workstation for pre-hypoxia for 3 hours. The medium in the culture plate was aspirated, and the plate was washed twice with preheated sugar-free DMEM medium, and 100 uL of sugar-free DMEM medium was added to each well. […]
At the end of the experiment, 50 uL of medium was taken from each well into a 96-well plate, and then cytotoxicity was detected according to the operating instructions of the LDH detection kit. The results were calculated as follows: […]

C[C@@]12CCCC1C1C[C@@H](O)[C@]3(O)C[C@@H](O)CC[C@]3(C)C1CC2 (stereo partly drawn) [YC-6, 5α-androst-3β,5,6β-triol]
protective effect compared with 10 μM dexamethasone (LDH release) (HPAEpiC cells; 10 μM, LPS and 1% O2 for 24 hours): significantly better protective effect than dexamethasone | damage to alveolar epithelial cells (LDH release) induced by hypoxia and LPS (HPAEpiC cells; 1, 5, 10 μM, 1 hour pre-incubation, 20 μg/mL LPS and 1% O2 for 24 hours): dose-dependently reduce damage to alveolar epithelial cells | OGD-R-induced increase in LDH release [1]: significantly reduced the OGD-R-induced increase in LDH release in a dose-dependent manner
